Structures can show the parent of a compound that is named as a salt.

Test [1] deals with C57BL/6 male mice. The test can be described thus: C57BL/6 hair growth after topical dosing. The class given is in vivo, mouse. The settings on record: shaved lower back, dosed topically once, visually graded for melanogenesis and hair regrowth. As to the method: (§1) A mouse model of male pattern baldness is used to investigate the effectiveness of the present compounds for growing hair. Agonists for the sonic hedgehog pathway that act by binding and activating Smoothened were tested in a formulation of 50:30:20 PG:EtOH:water or 5:95 DMSO:acetone vehicle. C57BL/6 male mice (48-52 days old on arrival) from Charles River Labs were used on the study. The mice were housed and cared for according to established procedures. Food and water were ad libitum. On Day 0, the mice were shaved on their lower back, an area of ˜1.5 inches x ˜2 inches with Wahl clippers using a surgical blade. On day −3, the mice were anesthetized with isoflurane, their back was rinsed with a pad of 70% ethanol, a placebo pellet or a DHT pellet (2.5 mg 21 day pellet) were implanted subcutaneously between the shoulder blades with a 10 gauge trochar. DHT pellet transplantation results in maintenance of existing hair follicles in the resting (telogen) phase. The hole was stapled with a sterile autoclip and the mice were returned to their cage after awaking. The mice were dosed topically once and visually graded daily, except weekends, for melanogenesis and hair regrowth of fur in the dosed area (Table 4).

The subject of test [2] is C57BL/6 male mice. The test can be described thus: DHT-induced alopecia (mouse model of male pattern baldness). The settings on record: C57BL/6 male mice with subcutaneous DHT pellet (2.5 mg 21 day), dosed topically once, visually graded for hair regrowth. The class given is in vivo. On the procedure:
as §1
In the absence of treatment with the present compounds, the follicles remain in telogen rather than following the normal time course of the mouse hair cycle.

In test [3] the test system is sonic hedgehog pathway. Kind of test: Hedgehog pathway Gli-luciferase reporter assay, TM3 cells. The settings on record: TM3 mouse Leydig cells. The class given is cell-based. A digest of the protocol:
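Luminescence read-out of gli-promoter luciferase in stably transfected cells; 11-point 1:3 dose curves, 24 h compound exposure in 0.5% FBS, ± octyl-modified Hh protein 1–5 ng/ml. AMAX as % of plate low/high controls; EC50 from curve; >20% AMAX counted active.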
(In general: In a reporter assay the amount or activity of a reporter protein is the signal.)

For test [4], the system named is sonic hedgehog pathway. The test can be described thus: Hedgehog pathway Gli-luciferase reporter assay, S12 cells. The class given is cell-based. To be noted: S12 mouse embryonic mesenchymal cells, read-out: S12 Avg. EC50. A digest of the protocol:
(§2)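 Agonist mode: cells carrying a luciferase gene downstream of the gli promoter received compound at 1–5 μM in 0.5% FBS for 24 h, optionally sensitised with 1–5 ng/ml octyl-modified hedgehog protein; luminescence gave % activation and EC50.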

Test [5] deals with sonic hedgehog pathway. Kind of test: Human hedgehog reporter assay HEPM-GliLuc (HGL). The class given is cell-based. To be noted: HepM human embryonic palatal mesenchymal cells, Gli-luciferase reporter. A digest of the protocol: as §2
In test [6] the test system is sonic hedgehog pathway. Kind of test: Human hedgehog reporter assay Daoy-GliLuc (DGL). To be noted: Daoy human medulloblastoma cells, Gli-luciferase reporter; read-out: Daoy Avg. EC50. The class given is cell-based. A digest of the protocol:
as §2

`CN[C@H]1CC[C@H](N(Cc2cc(-c3cc(C)nc(C)c3)ccc2OC)C(=O)c2sc3ccccc3c2Cl)CC1`: in the test with C57BL/6 male mice [1], the “C57BL/6 Hair Growth” value is listed as “yes”. Besides, in the test with C57BL/6 male mice [2], the “Androgenetic Alopecia” value is “yes”.

As for `CN[C@H]1CC[C@H](N(Cc2cc(-c3ccnc(C(=O)O)c3)ccc2OC)C(=O)c2sc3c(F)ccc(F)c3c2Cl)CC1`, the “C57BL/6 Hair Growth” value in the test with C57BL/6 male mice [1] is “no”.

With `CN[C@H]1CC[C@H](N(Cc2cc(-c3ccc(N)nc3)ccc2OC)C(=O)c2sc3cccc(F)c3c2Cl)CC1`, the “C57BL/6 Hair Growth” value in the test with C57BL/6 male mice [1] is given as “yes”. Moreover, the “Androgenetic Alopecia” value with C57BL/6 male mice [2] is reported as “yes”.

Turning to `CN[C@H]1CC[C@H](N(Cc2cc(-c3ccc(C(N)=O)cc3)ccc2OC)C(=O)c2sc3c(F)ccc(F)c3c2Cl)CC1`, the “C57BL/6 Hair Growth” value in the test with C57BL/6 male mice [1] is given as “yes”. In addition, in the test on C57BL/6 male mice [2], the “Androgenetic Alopecia” value was “yes”.

`CCOc1ccc(-c2ccc(C)nc2)cc1CN(C(=O)c1sc2ccccc2c1Cl)[C@H]1CC[C@H](NC)CC1`: the “C57BL/6 Hair Growth” value in the test on C57BL/6 male mice [1] is on record as “yes”.

For `CCOc1ccc(-c2ccc(C#N)cc2)cc1CN(C(=O)c1sc2ccccc2c1Cl)[C@H]1CC[C@H](NC)CC1`, in the test on C57BL/6 male mice [1], the “C57BL/6 Hair Growth” value is on record as “yes”.

In the case of `CN[C@H]1CC[C@H](N(Cc2cc(-c3ccccc3)ccc2OC)C(=O)c2sc3ccccc3c2Cl)CC1`, in the test with C57BL/6 male mice [1], the “C57BL/6 Hair Growth” value is given as “yes”. Also, the “Androgenetic Alopecia” value with C57BL/6 male mice [2] is reported as “yes”.

Take `CN[C@H]1CC[C@H](N(Cc2cc(-c3ccc(S(C)(=O)=O)cc3)ccc2OC)C(=O)c2sc3ccccc3c2Cl)CC1`: the “C57BL/6 Hair Growth” value in the test on C57BL/6 male mice [1] was “yes”. In the test on C57BL/6 male mice [2], the “Androgenetic Alopecia” value was “yes”.

For `CN[C@H]1CC[C@H](N(Cc2cc(-c3ccnc(C)c3)ccc2OC)C(=O)c2sc3ccccc3c2Cl)CC1`, the “C57BL/6 Hair Growth” value in the test on C57BL/6 male mice [1] was “yes”. For the same molecule, the “Androgenetic Alopecia” value in the test on C57BL/6 male mice [2] is on record as “yes”.

In general, EC50 refers to the midpoint of the concentration-response curve. For `CN[C@H]1CC[C@@H](N(Cc2cc(-c3ccnc(C)c3)ccc2OC)C(=O)c2sc3cccc(F)c3c2Cl)CC1` [Compound 348, 3-Chloro-4-fluoro-benzo[b]thiophene-2-carboxylic acid [2-methoxy-5-(2-methyl-pyridin-4-yl)-benzyl]-(4-methylamino-cyclohexyl)-amide bis(trifluoroacetate)], the EC50 with sonic hedgehog pathway [3], in the test on sonic hedgehog pathway [4], in the test on sonic hedgehog pathway [5] and with sonic hedgehog pathway [6] was under 50 nM in each case.

As for `CN[C@H]1CC[C@@H](N(Cc2cc(-c3ccc(C(C)=O)cc3)ccc2OC)C(=O)c2sc3ccccc3c2Cl)CC1` [Compound 303, 3-Chloro-benzo[b]thiophene-2-carboxylic acid (4′-acetyl-4-methoxy-biphenyl-3-ylmethyl)-(4-methylamino-cyclohexyl)-amide hydrochloride], the EC50 in the test on sonic hedgehog pathway [3], in the test on sonic hedgehog pathway [4], in the test on sonic hedgehog pathway [5] and in the test with sonic hedgehog pathway [6] was under 50 nM in each case.

For `CNC1CCC(N(Cc2cc(-c3ccncc3)ccc2OC)C(=O)c2sc3ccccc3c2Cl)CC1` (centres unmarked), the “C57BL/6 Hair Growth” value in the test on C57BL/6 male mice [1] was “yes”. In addition, the “Androgenetic Alopecia” value with C57BL/6 male mice [2] is reported as “yes”.

Consider `CN[C@H]1CC[C@@H](N(Cc2cc(-c3ccc(C(N)=O)cc3)ccc2OC)C(=O)c2sc3cccc(F)c3c2Cl)CC1` [Compound 346, 3-Chloro-4-fluoro-benzo[b]thiophene-2-carboxylic acid (4′-carbamoyl-4-methoxy-biphenyl-3-ylmethyl)-(4-methylamino-cyclohexyl)-amide hydrochloride], for which the EC50 with sonic hedgehog pathway [3], with sonic hedgehog pathway [4], in the test with sonic hedgehog pathway [5] and with sonic hedgehog pathway [6] was under 50 nM each time.

Regarding `CN[C@H]1CC[C@@H](N(Cc2cc(-c3ccnc(C(N)=O)c3)ccc2OC)C(=O)c2sc3c(F)ccc(F)c3c2Cl)CC1` [354 (R17)], the EC50 in the test with sonic hedgehog pathway [3], with sonic hedgehog pathway [4], in the test with sonic hedgehog pathway [5] and in the test with sonic hedgehog pathway [6] was under 50 nM throughout.

As to `CNc1cc(-c2ccc(OC)c(CN(C(=O)c3sc4c(F)ccc(F)c4c3Cl)[C@H]3CC[C@@H](NC)CC3)c2)ccn1` [Compound 357, 3-Chloro-4,7-difluoro-benzo[b]thiophene-2-carboxylic acid [2-methoxy-5-(2-methylamino-pyridin-4-yl)-benzyl]-(4-methylamino-cyclohexyl)-amide bis(trifluoroacetate)], the concentration giving a half-maximal response (EC50) with sonic hedgehog pathway [3], in the test on sonic hedgehog pathway [4], in the test with sonic hedgehog pathway [5] and with sonic hedgehog pathway [6] was under 50 nM in each case.

With `CN[C@H]1CC[C@H](N(Cc2cc(-c3ccnc(C(=O)N(C)C)c3)ccc2OC)C(=O)c2sc3c(F)ccc(F)c3c2Cl)CC1`, in the test on C57BL/6 male mice [1], the “C57BL/6 Hair Growth” value is “yes”. Besides, the “Androgenetic Alopecia” value with C57BL/6 male mice [2] is reported as “yes”.

On to `CN[C@H]1CC[C@@H](N(Cc2cc(-c3ccccn3)ccc2OC)C(=O)c2sc3c(F)ccc(F)c3c2Cl)CC1` [Compound 367, 3-Chloro-4,7-difluoro-benzo[b]thiophene-2-carboxylic acid (2-methoxy-5-pyridin-2-yl-benzyl)-(4-methylamino-cyclohexyl)-amide dihydrochloride], for which the concentration giving a half-maximal response (EC50) in the test on sonic hedgehog pathway [3], in the test with sonic hedgehog pathway [4], in the test with sonic hedgehog pathway [5] and in the test with sonic hedgehog pathway [6] was under 50 nM throughout.

On to `CN[C@H]1CC[C@@H](N(Cc2cc(-c3cccnc3)ccc2OC)C(=O)c2sc3c(F)ccc(F)c3c2Cl)CC1` [Compound 361, 3-Chloro-4,7-difluoro-benzo[b]thiophene-2-carboxylic acid (2-methoxy-5-pyridin-3-yl-benzyl)-(4-methylamino-cyclohexyl)-amide dihydrochloride], for which the EC50 in the test on sonic hedgehog pathway [3], in the test on sonic hedgehog pathway [4], in the test on sonic hedgehog pathway [5] and with sonic hedgehog pathway [6] was under 50 nM in each case.

Turning to `CN[C@H]1CC[C@@H](N(Cc2cc(-c3ccncc3)ccc2OC)C(=O)c2sc3cccc(F)c3c2Cl)CC1` [Compound 359, 3-Chloro-4-fluoro-benzo[b]thiophene-2-carboxylic acid (2-methoxy-5-pyridin-4-yl-benzyl)-(4-methylamino-cyclohexyl)-amide dihydrochloride], the EC50 with sonic hedgehog pathway [3], in the test on sonic hedgehog pathway [4], with sonic hedgehog pathway [5] and in the test on sonic hedgehog pathway [6] was under 50 nM throughout.

`CN[C@H]1CC[C@@H](N(Cc2cc(-c3ccc(C)nc3)ccc2OC)C(=O)c2sc3c(F)ccc(F)c3c2Cl)CC1` [Compound 334, 3-Chloro-4,7-difluoro-benzo[b]thiophene-2-carboxylic acid [2-methoxy-5-(6-methyl-pyridin-3-yl)-benzyl]-(4-methylamino-cyclohexyl)-amide bis(trifluoroacetate)]: the EC50 in the test on sonic hedgehog pathway [3], in the test with sonic hedgehog pathway [4], with sonic hedgehog pathway [5] and in the test on sonic hedgehog pathway [6] was under 50 nM in each case.

`CN[C@H]1CC[C@@H](N(Cc2cc(-c3ccc(S(C)(=O)=O)cc3)ccc2OC)C(=O)c2sc3c(F)ccc(F)c3c2Cl)CC1` [Compound 335, 3-Chloro-4,7-difluoro-benzo[b]thiophene-2-carboxylic acid (4′-methanesulfonyl-4-methoxy-biphenyl-3-ylmethyl)-(4-methylamino-cyclohexyl)-amide hydrochloride]: the half-maximal effective concentration (EC50) in the test on sonic hedgehog pathway [3], in the test with sonic hedgehog pathway [4], with sonic hedgehog pathway [5] and with sonic hedgehog pathway [6] was under 50 nM in each case.

Turning to `CN[C@H]1CC[C@H](N(Cc2cc(-c3ccnc(C(=O)OC)c3)ccc2OC)C(=O)c2sc3c(F)ccc(F)c3c2Cl)CC1` [drawing 714], the “C57BL/6 Hair Growth” value in the test on C57BL/6 male mice [1] is listed as “yes”. The “Androgenetic Alopecia” value in the test with C57BL/6 male mice [2] is reported as “yes”.

Consider `CN[C@H]1CC[C@H](N(Cc2cc(-c3ccc(NS(C)(=O)=O)nc3)ccc2OC)C(=O)c2sc3c(F)ccc(F)c3c2Cl)CC1`, for which the “C57BL/6 Hair Growth” value with C57BL/6 male mice [1] is reported as “yes”.
